{"source": "patent US6562609B1", "about": "“Cholesterol 25-hydroxylase” (Board of Regents, The University of Texas System, priority 1998, dated 2003)", "key": {"[1]": {"test_system": "cholesterol 25-hydroxylase", "experiment": "Inhibition of cholesterol 25-hydroxylase by sterols in transfected cells", "format": "cell-based", "details": "for rank order of inhibition of cholesterol 25-hydroxylase: 3 μM [14C]cholesterol, cells treated with 2-hydroxypropyl-β-cyclodextrin; for decrease of enzyme activity: sterol 3 μM, equimolar with [14C]cholesterol (3 μM)", "experimental": "(§1) Media from the transfected cells were collected and extracted with 8 ml of chloroform:methanol (2:1, v/v). The organic phase from each sample was taken to dryness under a stream of nitrogen and residues were dissolved in 40 μl aliquots of chloroform:methanol (2:1, v/v) and applied to 20×20 cm prescored LK5DF silica gel TLC plates (Whatman, Hillsboro, Oreg.) with preadsorbent layers. The plates were developed in ethyl acetate:toluene (4:6, v/v), and exposed to a Fuji BAS-MP phosphoimager plate overnight. Phosphoimage analysis was then performed on a Fuji BAS 1000 apparatus.\nInhibitor Studies—Transfection of CHOP cells was carried out as described above with the following exceptions. Cells were plated on Day 0 at a density of 150,000 cells/well in 6-well plates containing Medium C. On Day 1, cells were transfected with 2.7 μg of the indicated cholesterol 25-hydroxylase expression plasmid and 0.3 μg of pVA-1, using 12 μl of pfx-8 as transfection lipid. After 4 h, the lipid-DNA mixture was removed and 1.5 ml of Medium D was added. In certain experiments, this medium was aspirated and replaced on Day 2 with 1 ml per well of a 20 mg/ml solution of 2-hydroxypropyl-β-cyclodextrin (Sigma) in DMEM/Ham's F12 (1:1) medium and returned to the incubator. The cyclodextrin containing medium was replaced after 1-1.5 h with 1.5 ml of Medium D, and substrate and inhibitors were then added, each in a volume of 4.5 μl of ethanol. The concentration of [4-^14C]cholesterol substrate (specific activity=26.8 mCi/mmol) was 3 μM. Inhibitors were added to final concentrations of 3, 10 or 30 μM. Cells and/or cells plus medium were harvested at the indicated times, extracted, and the conversion of substrate into [4-^14C]25-hydroxycholesterol product was determined by thin layer chromatography as described above. The inhibitors used were cholesterol(5-cholesten-3β-ol), cholestanol (5α-cholestan-3β-ol), epicholesterol (5-cholesten-3α-ol), coprostanol(5β-cholestan-3β-ol), desmosterol(5,24-cholestadien-3β-ol), β-sitosterol(5-cholesten-24β-ethyl-3β-ol ), 25-hydroxycholesterol(cholest-5-ene-3β,25-diol), and 27-nor-25-oxocholesterol(27-nor-25-oxo-5-cholesten-3β-ol). All steroids were purchased from Steraloids Inc. (Wilton, N.H.), except cholesterol, which was from Sigma (St. Louis, Mo.).\nWe next tested the ability of different sterols to inhibit cholesterol 25-hydroxylase. In these experiments, 293 cells were transfected with a 25-hydroxylase cDNA, treated with 2-hydroxypropyl-β-cyclodextrin to remove endogenous cholesterol, and then incubated with 3 μM [^14C]cholesterol and the indicated concentrations of unlabeled inhibitor sterol. The rank order of inhibition for the […] sterols tested was desmosterol>cholestanol>25-hydroxycholesterol>epicholesterol>sitosterol>>coprostanol=25-oxo-27-nor-cholesterol. […] In the case of desmosterol (5,24-cholestadien-3β-ol), which can not be 25-hydroxylated due to the Δ^24 bond, this sterol appears to act as a true inhibitor."}, "gene transcription": {"test_system": "gene transcription", "details": "compared with 24- and 27-hydroxycholesterol, in vitro; cited from earlier work"}, "[2]": {"target": "T1, cholesterol 25-hydroxylase (Mus musculus, UniProt Q9Z0F5)", "T1 construct": "a full-length mouse 25-hydroxylase cDNA fragment from plasmid pCMV-m25; expressed in transfected cells; host or cells: CHOP cells (CHO derivative expressing polyoma middle T antigen)", "T1 sequence (Q9Z0F5 1-298)": "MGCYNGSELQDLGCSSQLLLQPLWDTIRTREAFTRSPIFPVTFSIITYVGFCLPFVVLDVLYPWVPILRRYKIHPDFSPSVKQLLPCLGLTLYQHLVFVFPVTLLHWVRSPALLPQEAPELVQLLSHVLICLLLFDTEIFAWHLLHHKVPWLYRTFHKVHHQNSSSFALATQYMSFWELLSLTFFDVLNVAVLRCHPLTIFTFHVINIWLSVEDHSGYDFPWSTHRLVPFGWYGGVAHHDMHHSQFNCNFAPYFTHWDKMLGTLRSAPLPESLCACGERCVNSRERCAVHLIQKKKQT", "experiment": "25-hydroxylase activity in CHOP cells transfected with the murine cDNA", "format": "cell-based", "details": "treatment of transfected CHOP cells", "experimental": "(§2) Measurement of cholesterol 25-hydroxylase activity in whole cells—The transfection medium containing the cationic lipid was aspirated and replaced with 3 ml of Medium B (DMEM containing 10% newborn calf lipoprotein-poor serum, 100 u/ml penicillin, and 100 μg/ml streptomycin sulfate) supplemented with 5 μI of [4-^14C]cholesterol (56.6 mCi/mmol; 0.040 μCi/μl; New England Nuclear, Boston, Mass.). Cells were incubated for a further 60 h at 37° C. in an atmosphere of 8.8% CO2.\nas §1\nInhibitor Studies—Transfection of CHOP cells was carried out as described above with the following exceptions. […] Cells and/or cells plus medium were harvested at the indicated times, extracted, and the conversion of substrate into [4-^14C]25-hydroxycholesterol product was determined by thin layer chromatography as described above. […]"}, "human 25-hydroxylase": {"target": "T2, human 25-hydroxylase (Homo sapiens, UniProt O95992)", "T2 construct": "expressed in transfected cells; host or cells: human embryonic kidney 293 cells", "T2 sequence (O95992 1-272)": "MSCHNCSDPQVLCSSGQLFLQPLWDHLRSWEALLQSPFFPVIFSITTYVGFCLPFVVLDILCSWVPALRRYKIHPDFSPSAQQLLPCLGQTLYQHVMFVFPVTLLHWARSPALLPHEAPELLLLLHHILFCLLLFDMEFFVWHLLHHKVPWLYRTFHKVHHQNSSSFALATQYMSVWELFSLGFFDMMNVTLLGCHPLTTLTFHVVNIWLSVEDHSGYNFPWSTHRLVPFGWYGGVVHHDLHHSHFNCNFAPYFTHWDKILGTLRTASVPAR", "experiment": "25-hydroxylase activity in 293 cells transfected with the human cDNA", "format": "cell-based", "details": "treatment of transfected 293 cells", "experimental": "as §2, §1\nThis EST was used to isolate a near full-length cDNA encoding the human 25-hydroxylase as described in Experimental Procedures. Transfection into 293 cells of the human cDNA cloned in a pCMV6 vector produced abundant 25-hydroxylase enzyme activity."}}}
{"compound": "CC(=O)CCC[C@@H](C)[C@H]1CC[C@H]2[C@@H]3CC=C4C[C@@H](O)CC[C@]4(C)[C@H]3CC[C@]12C", "note": "[25-oxo-27-nor-cholesterol, 27-nor-25-oxo-5-cholesten-3β-ol]", "values": [{"measurement": "rank order of inhibition of cholesterol 25-hydroxylase", "setting": "[1]", "result": "desmosterol>cholestanol>25-hydroxycholesterol>epicholesterol>sitosterol>>coprostanol=25-oxo-27-nor-cholesterol"}]}
{"compound": "CC[C@H](CC[C@@H](C)[C@H]1CC[C@H]2[C@@H]3CC=C4C[C@@H](O)CC[C@]4(C)[C@H]3CC[C@]12C)C(C)C", "note": "[sitosterol, 5-cholesten-24β-ethyl-3β-ol]", "values": [{"measurement": "rank order of inhibition of cholesterol 25-hydroxylase", "setting": "[1]", "result": "desmosterol>cholestanol>25-hydroxycholesterol>epicholesterol>sitosterol>>coprostanol=25-oxo-27-nor-cholesterol"}]}
{"compound": "CC(C)=CCC[C@@H](C)[C@H]1CC[C@H]2[C@@H]3CC=C4C[C@@H](O)CC[C@]4(C)[C@H]3CC[C@]12C", "note": "[desmosterol, 5,24-cholestadien-3β-ol]", "values": [{"measurement": "rank order of inhibition of cholesterol 25-hydroxylase", "setting": "[1]", "result": "desmosterol>cholestanol>25-hydroxycholesterol>epicholesterol>sitosterol>>coprostanol=25-oxo-27-nor-cholesterol"}, {"measurement": "decrease of enzyme activity", "setting": "[1]", "result": 30, "unit": "%"}]}
{"compound": "CC(C)CCC[C@@H](C)[C@H]1CC[C@H]2[C@@H]3CC[C@H]4C[C@@H](O)CC[C@]4(C)[C@H]3CC[C@]12C", "note": "[cholestanol, 5α-cholestan-3β-ol]", "values": [{"measurement": "rank order of inhibition of cholesterol 25-hydroxylase", "setting": "[1]", "result": "desmosterol>cholestanol>25-hydroxycholesterol>epicholesterol>sitosterol>>coprostanol=25-oxo-27-nor-cholesterol"}]}
{"compound": "CC(C)CCC[C@@H](C)[C@H]1CC[C@H]2[C@@H]3CC=C4C[C@H](O)CC[C@]4(C)[C@H]3CC[C@]12C", "note": "[epicholesterol, 5-cholesten-3α-ol]", "values": [{"measurement": "rank order of inhibition of cholesterol 25-hydroxylase", "setting": "[1]", "result": "desmosterol>cholestanol>25-hydroxycholesterol>epicholesterol>sitosterol>>coprostanol=25-oxo-27-nor-cholesterol"}]}
{"compound": "C[C@H](CCCC(C)(C)O)[C@H]1CC[C@H]2[C@@H]3CC=C4C[C@@H](O)CC[C@]4(C)[C@H]3CC[C@]12C", "note": "[25-hydroxycholesterol, cholest-5-ene-3β,25-diol]", "values": [{"measurement": "rank order of inhibition of cholesterol 25-hydroxylase", "setting": "[1]", "result": "desmosterol>cholestanol>25-hydroxycholesterol>epicholesterol>sitosterol>>coprostanol=25-oxo-27-nor-cholesterol"}, {"measurement": "potency as regulator of gene transcription among natural oxysterols", "setting": "gene transcription", "result": "most potent regulator of gene transcription"}]}
{"compound": "2-hydroxypropyl-β-cyclodextrin", "values": [{"measurement": "stimulation of 25-hydroxylase activity", "setting": "[2]", "result": "approximately 10 fold"}, {"measurement": "stimulation of 25-hydroxylase activity", "setting": "human 25-hydroxylase", "result": "approximately five-fold"}]}
{"compound": "CC(C)CCC[C@@H](C)[C@H]1CC[C@H]2[C@@H]3CC[C@@H]4C[C@@H](O)CC[C@]4(C)[C@H]3CC[C@]12C", "note": "[coprostanol, 5β-cholestan-3β-ol]", "values": [{"measurement": "rank order of inhibition of cholesterol 25-hydroxylase", "setting": "[1]", "result": "desmosterol>cholestanol>25-hydroxycholesterol>epicholesterol>sitosterol>>coprostanol=25-oxo-27-nor-cholesterol"}, {"measurement": "decrease of enzyme activity", "setting": "[1]", "result": "did not inhibit the enzyme"}]}
